Values after ≈ are worked out from the molar mass of the structure shown. Peptide text beside a SMILES is read from it.
Experiments:
[1] = tested on: 11 clinically relevant bacterial pathogens; type: cell-based; settings: Supplementary Dataset 2; against the 11 pathogens tested
Source text: (§1) The following Gram-negative bacteria were used in our study: A. baumannii ATCC 19606, E. coli ATCC 11775, E. coli AIC221 (E. coli MG1655 phnE_2::FRT), E. coli AIC222 (E. coli MG1655 pmrA53 phnE_2::FRT (colistin resistant)), K. pneumoniae ATCC 13883, P. aeruginosa PAO1 and P. aeruginosa PA14. The following Gram-positive bacteria were also used in our study: S. aureus ATCC 12600, S. aureus ATCC BAA-1556 (methicillin-resistant strain), E. faecalis ATCC 700802 (vancomycin-resistant strain) and E. faecium ATCC 700221 (vancomycin-resistant strain). Bacteria were grown from frozen stocks and plated on Luria–Bertani (LB) or Pseudomonas isolation agar plates (P. aeruginosa strains) and incubated overnight at 37 °C. After the incubation period, a single colony was transferred to 5 ml of LB medium, and cultures were incubated overnight (16 h) at 37 °C. The following day, an inoculum was prepared by diluting the overnight cultures 1:100 in 5 ml of the respective media and incubating them at 37 °C until bacteria reached logarithmic phase (OD600 = 0.3–0.5).
(§2) The in vitro antimicrobial activity of the peptides was assessed by using the broth microdilution assay. […] Aqueous solutions of the peptides were added to the plate at concentrations ranging from 1 to 64 μmol l^−1. […] The optical density of the plates was measured at 600 nm using a spectrophotometer. All assays were done as three biological replicates.

[2] = tested on: E. faecium ATCC 700221 (vancomycin-resistant strain); type: cell-based, Enterococcus faecium; settings: ATCC 700221, 20 h
Source text: as §1, §2

HEK293T cells = settings: 24 h
Procedure: HEK293T cells were obtained from the American Type Culture Collection (CRL-3216). The cells were cultured in high-glucose Dulbecco’s modified Eagle’s medium supplemented with 1% penicillin and streptomycin (antibiotics) and 10% fetal bovine serum and grown at 37 °C in a humidified atmosphere containing 5% CO2.
One day before the experiment, an aliquot of 100 μl of the cells at 50,000 cells per ml was seeded into each well of the cell-treated 96-well plates used in the experiment (that is, 5,000 cells per well). […] After the incubation period, we performed the 3-(4,5-dimethylthiazol-2-yl)-2,5-diphenyltetrazolium bromide tetrazolium reduction assay (MTT assay)[53]. The MTT reagent was dissolved at 0.5 mg ml^−1 in medium without phenol red and was used to replace cell culture supernatants containing the peptides (100 μl per well), and the samples were incubated for 4 h at 37 °C in a humidified atmosphere containing 5% CO2 yielding the insoluble formazan salt. The resulting salts were then resuspended in hydrochloric acid (0.04 mol l^−1) in anhydrous isopropanol and quantified by spectrophotometric measurements of absorbance at 570 nm. All assays were done as three biological replicates.
Unless otherwise stated, all assays were performed in three independent biological replicates as indicated in each figure legend and Methods sections. The cytotoxic activities values were estimated using non-linear regression based on the range of concentrations screened and were shown as the values that cause lysis of 50% of the cells in the experiment. Two technical replicates were performed in the cytotoxicity assays within each of the three biological replicates.

A. baumannii ATCC 19606 = type: cell-based, Acinetobacter baumannii; settings: ATCC 19606, 20 h
Source text: as §1, §2

E. coli AIC221 = type: cell-based, Escherichia coli; settings: AIC221, 20 h
Source text: as §1, §2

Row | Compound | Active or Inactive [1] | Minimal inhibitory concentration, E. faecium ATCC700221-VRE [2] | CC50 (HEK293T cells) | TI (therapeutic index) (HEK293T cells) | Minimal inhibitory concentration, A. baumannii ATCC19606 (A. baumannii ATCC 19606) | Minimal inhibitory concentration, E. coli AIC221 (E. coli AIC221)
1 | CC[C@H](C)[C@H](NC(=O)[C@H](Cc1ccccc1)NC(=O)[C@H](CC(N)=O)NC(=O)[C@@H](NC(=O)[C@@H](NC(=O)[C@H](Cc1c[nH]cn1)NC(=O)[C@@H](N)CC(C)C)[C@@H](C)O)[C@@H](C)CC)C(=O)N[C@H](C(=O)N[C@@H](CCCCN)C(=O)N[C@@H](CO)C(=O)N[C@@H](CC(C)C)C(=O)N[C@@H](CC(C)C)C(=O)N[C@@H](CC(C)C)C(=O)O)[C@@H](C)CC [Bisonin-1] (H-LHTINFIIKSLLL-OH; N-terminus and C-terminus assumed) | Active | 16 µM (≈ 24.4 µg/mL) | > 128 µM | > 8 |  | 
2 | CC[C@H](C)[C@H](NC(=O)[C@H](CCCCN)NC(=O)[C@@H](NC(=O)[C@H](Cc1c[nH]c2ccccc12)NC(=O)[C@@H](N)CCCCN)[C@@H](C)O)C(=O)N[C@@H](Cc1ccc(O)cc1)C(=O)N[C@@H](CC(C)C)C(=O)N1CCC[C@H]1C(=O)N[C@@H](CC(C)C)C(=O)N[C@@H](CC(C)C)C(=O)N[C@@H](CC(C)C)C(=O)N1CCC[C@H]1C(=O)N[C@@H](CC(C)C)C(=O)O [Bisonin-2] (H-KWTKIYLPLLLPL-OH; N-terminus and C-terminus assumed) | Active | 8 µM (≈ 12.8 µg/mL) | > 128 µM |  | 8 µM (≈ 12.8 µg/mL) | 
3 | CC[C@H](C)[C@H](NC(=O)[C@H](CCCCN)NC(=O)[C@H](CC(C)C)NC(=O)[C@@H](NC(=O)[C@@H](N)CCCCN)[C@@H](C)O)C(=O)N[C@H](C(=O)N[C@@H](CCCNC(=N)N)C(=O)N[C@@H](CC(C)C)C(=O)N[C@@H](CC(C)C)C(=O)N[C@@H](Cc1ccccc1)C(=O)O)[C@@H](C)CC [Mammuthusin-3] (H-KTLKIIRLLF-OH; N-terminus and C-terminus assumed) | Active |  | > 128 µM |  | 32 µM (≈ 39.8 µg/mL) | 16 µM (≈ 19.9 µg/mL)
4 | CC[C@H](C)[C@H](NC(=O)[C@@H](NC(=O)[C@H](CCSC)NC(=O)[C@@H](N)Cc1c[nH]c2ccccc12)[C@@H](C)O)C(=O)N[C@@H](Cc1c[nH]cn1)C(=O)N[C@@H](C)C(=O)N[C@@H](CC(C)C)C(=O)N[C@@H](CCCCN)C(=O)N[C@@H](CC(C)C)C(=O)N[C@@H](CO)C(=O)N[C@@H](CC(C)C)C(=O)N[C@@H](CO)C(=O)N[C@@H](Cc1ccccc1)C(=O)N[C@@H](CCCCN)C(=O)N[C@@H](CC(C)C)C(=O)O [Mammutin-1] (H-WMTIHALKLSLSFKL-OH; N-terminus and C-terminus assumed) | Active | 2 µM (≈ 3.58 µg/mL) | > 128 µM | > 64 |  | 
5 | CC[C@H](C)[C@H](NC(=O)[C@H](CCCCN)NC(=O)[C@H](CO)NC(=O)[C@H](CC(N)=O)NC(=O)[C@H](Cc1ccccc1)NC(=O)[C@H](Cc1c[nH]cn1)NC(=O)[C@H](Cc1ccccc1)NC(=O)[C@@H](N)Cc1c[nH]c2ccccc12)C(=O)N[C@@H](CC(C)C)C(=O)N[C@@H](CC(C)C)C(=O)N[C@@H](CC(C)C)C(=O)N[C@H](C(=O)NCC(=O)N[C@@H](CC(C)C)C(=O)O)[C@@H](C)O [Mylodonin-1] (H-WFHFNSKILLLTGL-OH; N-terminus and C-terminus assumed) | Active | 8 µM (≈ 13.5 µg/mL) | > 128 µM | > 16 |  | 

From publication PMC11310081, “Deep-learning-enabled antibiotic discovery through molecular de-extinction” (Nature Biomedical Engineering, 2024)
